PMC10386076, “Discovery of RC-752, a Novel Sigma-1 Receptor Antagonist with Antinociceptive Activity: A Promising Tool for Fighting Neuropathic Pain” (Pharmaceuticals, 2023)
Entries after “also recorded” stand apart in the source; their conditions may differ.

What was measured:
[1] = test system: MRC-5 (human normal lung fibroblasts); experiment: MTS cytotoxicity assay, MRC-5; assay type: cell-based
Protocol: The early toxicity assays included in vitro cytotoxicity against two human cell lines, namely MRC-5 (human normal lung fibroblasts) and CHME-5 (human microglial cells) and an in vivo zebrafish model. The cell lines MRC-5 and CHME-5 were exposed for 24, 48, and 72 h to increasing concentrations of the tested compounds (from 0.1 to 100 µM).
A CellTiter 96® AQueous One Solution Cell Proliferation Assay (Promega, Milan, Italy) was used on cells seeded onto a 96-well plate at a density of 9 × 10^3 cells per well. The effect of the test compound was evaluated at four different concentrations (0.1, 1, 10, and 100 μM) after 24 h of continued exposure. Two independent experiments were performed for each concentration. The optical density (OD) of the treated and untreated cells was determined at a wavelength of 490 nm using a plate reader. The data were elaborated with the GraphPad Prism 5 program.

S1R = biological target: T1, S1R (Cavia porcellus, UniProt Q60492); experiment: S1R radioligand displacement binding assay ([3H]-(+)-pentazocine); set-up: species or system guinea pig; details: for Selectivity (Ki S2R/Ki S1R): ratio Ki S2R/Ki S1R
T1 construct: tissue Harlan-Winkelmann, Borchen, Germany; host or cells: guinea pig brain membrane homogenate
Protocol: (R/S)-1a–3e were first evaluated for their binding affinity toward the S1R and S2R in a radioligand displacement assay. […] Nonspecific binding was determined using non-radiolabeled (+)-pentazocine and haloperidol in excess. All the binding experiments were carried out in duplicate. […] Haloperidol was used as a control compound in both assays.
Five guinea pig brains were homogenized with the potter (500–800 rpm, 10 up and down strokes) in 6 volumes of cold 0.32 M sucrose. The suspension was centrifuged at 1200× g for 10 min at 4 °C. […] This procedure was repeated twice. The final pellet was resuspended in 56 volumes of buffer and frozen ([…]) in 1.5 mL portions containing about 1.5 mg protein/mL.
The test compound solutions were prepared by dissolving approximately 10 µmol (usually 2–4 mg) of test compound in dimethyl sulfoxide (DMSO, unless otherwise specified), so that a 10 mM stock solution was obtained. To obtain the required test solutions for the assay, the DMSO stock solution was diluted with the respective assay buffer. The filtermats were presoaked in 0.5% aqueous polyethylenamine solution for 2 h at r.t. before use. All the binding experiments were carried out in duplicate in 96-well multiplates. The concentrations given are the final concentrations in the assay. […] The receptor preparation was always added last. During the incubation, the multiplates were shaken at a speed of 500–600 rpm at the specified temperature. […] During the filtration each well was washed five times with 300 µL of water. Subsequently, the filtermats were dried at 95 °C. The solid scintillator was melted on the dried filtermats at 95 °C for 5 min. After the solidifying of the scintillator at r.t., the trapped radioactivity in the filtermats was measured with the scintillation analyzer. Each position on the filtermat corresponding to one well of the multiplate was measured for 5 min with the [^3H]-counting protocol. The overall counting efficiency was 20%. The IC50 values were calculated with GraphPad Prism 3.0 (GraphPad Software, San Diego, CA, USA) by nonlinear regression analysis. The IC50 values were subsequently transformed into Ki values using the equation of Cheng and Prusoff. All the experiments were carried out in duplicates. Compounds with high S1R affinity were tested in three independent experiments, and their Ki values are given as mean value ± SEM from the three measurements. […] (22.0 Ci/mmol; Perkin-Elmer). […] The nonspecific binding was determined with 10 µM unlabeled (+)-pentazocine.

HeLa cells = experiment: AQP-mediated osmotic water permeability assay (stopped-flow light scattering); details: pre-treatment 20 μM, heat stress 42 °C 3 h
Protocol: As an orthogonal assay to determine the functional profile of our compounds, the effect on AQP-mediated water permeability was investigated. AQPs are a family of transmembrane proteins involved in the transport of water and other small molecules (e.g., H2O2) through cell membranes. AQP functions are thus critical in ensuring reactive oxygen species (ROS) scavenging and cell survival. […] Briefly, the osmotic water permeability of HeLa cells was measured by a stopped-flow light scattering method and expressed as a percentage of k relative.
Osmotic water permeability was measured in the HeLa cell suspension by the stopped-flow light scattering method, as previously described. The experiments were performed at 25 °C on the stopped-flow apparatus (RX2000, Applied Photophysics, Leatherhead, UK) with a pneumatic drive accessory (DA.1, Applied Photophysics) straightforwardly coupled with a Varian Cary 50 spectrometer (Varian Australia Pty Ltd., Mulgrave, Australia). Briefly, scattered light intensity with a dead time of 6 ms was recorded at a wavelength of 450 nm. […] To evaluate the effect of the test compounds on water permeability, the HeLa cells were divided into different groups: (1) controls, cells incubated at r.t. (21 °C) in the presence of the same volume of methanol as that of the treated cells; (2) heat-stressed cells, cells heat-treated in a water thermostatic and shacking bath at 42 °C for 3 h; (3) heat-stressed cells pre-treated with the test compounds at a 20 µM final concentration (dissolved in methanol).

PC12 cells = experiment: NGF-induced neurite outgrowth assay in PC12 cells; assay type: cell-based; details: for effect on percentage of differentiated PC12 cells, co-administration with PRE-084: 0.25 μM and 2.5 μM with 10 μM PRE-084, vs PRE-084; for effect on NGF-induced neurite outgrowth, compound alone: 0.25 μM and 2.5 μM, vs NGF
Protocol: At 80% confluence, the cells were either split to allow a further culture expansion or plated onto 48-well flat-bottom plates previously coated with poly-L-ornithine (Sigma Aldrich, Milan, Italy) at the final concentration of 10 μg/cm^2. The cells were plated at low density (2500 cells/well) to allow proper neurite elongation. The PC12 cells were mechanically detached from the flask to avoid cell-surface receptor cleavage and to preserve the correct binding of NGF to the TrkA receptors. To minimize detachment stress, the cells were left in PM for 24 h to recover. […] PRE-084 (10 µM), an S1R agonist, was used to verify that the effects of the selected compounds were due to the S1R modulation. In CTR conditions, the cells were incubated with the drug vehicle. For all the ligands, two replicates per concentration were performed in at least 3 experiments with different PC12 batches.
After 72 h incubation in DM, the cells were fixed with a 4% paraformaldehyde solution (pH 7.4). To allow the neurite visualization with a bright-field microscope, the cells were stained with the Harris Hematoxylin solution (Sigma Aldrich). After staining, images of six fields per well were acquired with a digital camera linked to a bright-field inverted microscope (Optika) (20× magnification). […] Only the cells bearing a neurite as long as their soma’s diameter were identified as differentiated cells. The number of differentiated cells was expressed as the percentage of differentiated cells over the total number of cells.

[2] = MRC-5, concentrations ≤10 μM, 24, 48 and 72 h

T1 sequence (Q60492 whole entry): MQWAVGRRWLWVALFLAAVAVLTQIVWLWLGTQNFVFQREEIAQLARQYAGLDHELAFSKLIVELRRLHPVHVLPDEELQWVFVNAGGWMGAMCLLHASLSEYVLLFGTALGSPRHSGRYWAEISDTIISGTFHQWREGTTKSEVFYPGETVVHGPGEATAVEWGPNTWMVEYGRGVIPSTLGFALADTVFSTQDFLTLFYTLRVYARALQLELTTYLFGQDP

SMILES | cytotoxicity ([1]; MRC-5, 100 µM, 24 and 48 h of exposure) | survival rate ([1]; MRC-5, 100 µM, 72 h) | cytotoxicity [1, 2] | Selectivity (Ki S2R/Ki S1R) (S1R) | effect on water permeability in heat-stressed HeLa cells (HeLa cells) | effect on percentage of differentiated PC12 cells, co-administration with PRE-084 (PC12 cells; listed as (R/S)-1d) | effect on NGF-induced neurite outgrowth, compound alone (PC12 cells) | cytotoxicity ([1]; MRC-5, 100 µM, 24 h of exposure) | Ki (S1R) [nM] | effect on percentage of differentiated PC12 cells, co-administration with PRE-084 (PC12 cells)
OCC(CCN1CCCCC1)c1ccc(-c2ccccc2)cc1 (centres unmarked) [Compound 1d, 2-([1,1’-biphenyl]-4-yl)-4-(piperidin-1-yl)butan-1-ol] | no significative cytotoxicity | higher than 50% | no cytotoxicity | 58 | in line with that of S1R antagonists | significantly reduced; also recorded: most effective | did not significantly enhance |  |  | 
CN(CCC(CO)c1ccc(-c2ccccc2)cc1)Cc1ccccc1 (centres unmarked) [Compound 1c, 3-([1,1’-biphenyl]-4-yl)-N-benzyl-4-hydroxy-N-methylbutanamine] |  |  | no cytotoxicity | 127 | in line with that of S1R antagonists |  | did not significantly enhance | evident cytotoxic effects | 0.95 ± 0.08 | significantly reduced
